Assay results as given in patent publication US11022604B2, “Dock derived compound against laminin receptor (37 LR) and uses thereof” (Purdue Research Foundation, priority 2017, dated 2021).

Columns and labels:
Type in all cases: cell-based
PC-3 cells = assay: RT-qPCR of PEDF-signaling associated genes; settings: PC-3, 50 μM, 48 hours
Procedure: Expression of PEDF-signaling associated genes from PC-3 cells treated with 50 μM C3, compared to DMSO control and normalized to GAPDH (n=3, mean±SEM). A Holm-Sidak multiple t test was used for statistical analysis (*p<0.05,**O<0.01, ***<0.001). […] Average tube count for 0.1% DMSO, 0.5% DMSO, and 1, 10 and 50 μM treatment with C3 (n=7, mean±SEM). 1 and 10 μM C3 were compared with respective 0.5% DMSO (unpaired two-tailed t test, ****<0.0001). 50 μM C3 was compared with respective 0.1% DMSO (unpaired two-tailed t test p<0.0001).
RT-qPCR. PC-3 cells were seeded in 6 well plates at 3×10^5 cells per well and incubated with 50 μM C3 or DMSO equivalent in 1×RPMI-1640, 1× anti-anti, and 2% FBS (ThermoFisher) for 48 hours. PC-3 cells were lifted using 20 mM EDTA in 1×DPBS and pelleted before isolating total RNA using the RNeasy Mini Kit (Qiagen). 1 μg of RNA per sample was reverse transcribed using the amfiRivert cDNA synthesis master mix (GenDEPOT). Real-time PCR wells contained 1 μL cDNA template, 2×SYBR Green Master Mix (Applied Biosystems), and 20 μM forward and reverse primers. Primer sequences are provided in Table 2. qRT-PCR was performed on an Eppendorf Realplex 2S (Eppendorf), using: 40×95° C. for 3 mins; 95° C. for 3 s; 60° C. for 30 s; 72° C. for 8 s and analyzed using EP Realplex software (version 2.2). Fold changes were normalized to GAPDH using the ddCT method.
Genes involved in migration/invasion and/or extracellular matrix (ECM) communication also were assayed.

[1] = tested on: PC3 prostate cancer cell line; assay: Cell Titer Glo cell viability assay; settings: Homo sapiens, PC-3, PC3 cells
From the text: In this series of cell viability experiments, we used the highly sensitive Cell Titer Glo reagents from Promega in PC3 prostate cancer cell line. We compared the parental compound C3 effect on reducing cell viability with the best derivative compound, DBG-02-09.

[2] = tested on: SH-SY5Y neuroblastoma cells; assay: Cell viability screen (CCK-8), SH-SY5Y cells; settings: Homo sapiens, CCK-8, 96 hours, read-out: IC50, inhibition of cell viability
Procedure: FIGS. 2A-2H. Dose response curves. Does response curves for cell lines treated with 6, 10.5, 18.6, 32.4, 57.5 and 100 μM of compound (log) for 96 hours using % cell viability derived from CCK-8 absorbance readings at 450 nm (n=3, mean±SEM). A DMSO equivalent control (n=2±SEM) was also included for each cell line tested: Ea.hy.926 endothelial cells (Endo), LNCaP androgen dependent metastatic prostate cancer cells, TC2-Ras mouse prostate cancer cells, PC-3 androgen independent metastatic prostate cancer cells, and SH-SY5Y neruoblastoma cells. […]
Cell Viability Screen. […] Cell viability was measured by using the cell counting kit-8 (CCK-8, Dojindo). […] CCK-8 absorbance was measured at 450 nm using a GloMax Multimode Reader (Promega). Readings were performed the day after seeding to normalize for variations in cell seeding and after 96 hours of compound treatment. After each reading, CCK-8 media was removed and replaced with media containing compound as described previously. […] As described previously, an initial baseline CCK-8 reading was performed at 24 hours post seeding to correct for variations in seeding density. First, 450 nm values for each well were subtracted from media only readings to correct for baseline absorbance. Then, the 96 hour readings were normalized to their respective 24 hour readings to control for seeding variation. […]

O=C(c1cc(F)cc2c1OCOC2)N1CCN(C2c3ccccc3-c3ccccc32)CC1 [Compound C3, [4-(9h-fluoren-9-yl)piperazino](6-fluoro-4h-1,3-benzodioxin-8-yl)methanone]
VEGF mRNA, fold change (PC-3 cells): ~4 FC | VEGFR2 transcription, fold change (PC-3 cells): > −15 fold change | thrombospondin-1 (THBS1) mRNA, fold change (PC-3 cells): > 10 FC | IC50 [1]: 16.7 ± 7.6 µM | IC50 [2]: 18.6 µM
